Data from patent US11219625B2, “Inhibitors of N-linked glycosylation and methods using same” (YALE UNIVERSITY, priority 2015, dated 2022).

What was measured:
[1] = system: lipid linked oligosaccharides (LLOs); assay: FACE analysis of lipid linked oligosaccharides; assay type: cell-based; conditions: p<0.01
Experimental: Fluorophore assisted carbohydrate electrophoresis (FACE) was performed as previously described (Gao, et al., Glycobiology 2002, 12, 353-360; Gao, et al., J Biol Chem 2005, 280, 17901-17909). Control (Ac-Gln-Tyr-Thr-CONH2) and acceptor (Ac-Asn-Tyr-Thr-CONH2) peptides were used for permeabilized cell experiments. Metabolic labeling of Hela cells, transfection of prosaposin (pSAP) and steroid hormone binding globulin (SHBG) vectors, and knockdown of SIT3A and STT3B to monitor N-linked glycosylation knockdown were performed as described (Shrimal, et al., J Cell Biol 2013, 201, 81-95). Western blot analysis was performed as previously described (Bennett, et al., Transl Oncol 2013, 6, 382-391). The following primary antibodies were used: rabbit anti-EGFR (sc-03; Santa Cruz Biotechnology; 1:1000), rabbit anti-phospho (Tyr1173) EGF Receptor (Cell Signaling; 1:1000), rabbit anti-p21 Waf1/Cip1 (12D1; Cell Signaling; 1:1000), rabbit anti-Cyclin D1 (Cell Signaling; 1:1000), mouse anti-β-Actin (8H10D10; Cell Signaling; 1:1000). For phospho-protein array analysis, PC9 and A549 cells were cultured in 6-well plates in serum-containing medium and treated with or without 10 μM NGI-1 for 24 hours. […]

[2] = system: cyclin D1; assay: Cyclin D1 expression (qRT-PCR, western blot), PC9; assay type: cell-based, human
Experimental: (§1) FIGS. 5A-5G illustrate NGI-1 induces G1 arrest and senescence in EGFR addicted tumor cells. FIG. 5A illustrates cell cycle distribution of PC9 cells after 24 h NGI-1 treatment for 24 h determined by flow cytometry. […] FIG. 5B illustrates cell cycle distribution of A549 cells after 24 h NGI-1 treatment for 24 h determined by flow cytometry. FIG. 5C illustrates western blot time course of cyclin D1 expression in PC9 and A549 cells after NGI-1 treatment. FIG. 5D illustrates quantitative real-time PCR analysis of PC9 and A549 cells. A time course of cyclin D1 expression levels relative to GAPDH is represented. […] FIG. 5F illustrates senescence of PC9 cells explored by: cell autofluorescence, measured by flow cytometry using a detector for PE/YFP; lipofuscin accumulation, detected by confocal laser scanning microscopy using an excitation laser of 405 nm with acquired signals from spectrums of yellow 575-620 nm; and morphology changes, enlarged vs. flattened. […] Significance was calculated using a T test (*p<0.05. **p<0.01). FIG. 5G illustrates senescence of A549 cells explored by: cell autofluorescence, measured by flow cytometry using a detector for PE/YFP; lipofuscin accumulation, detected by confocal laser scanning microscopy using an excitation laser of 405 nm with acquired signals from spectrums of yellow 575-620 nm; and morphology changes, enlarged vs. flattened. […]

[3] = system: PC9 cells; assay: Cell cycle distribution by flow cytometry, PC9; assay type: cell-based; conditions: PC9, NGI-1 24 h; control 65%; p<0.01
Experimental: as §1

Cc1cnc(NC(=O)c2cc(S(=O)(=O)N(C)C)ccc2N2CCCC2)s1 [NGI-1, 5-(N,N-Dimethylsulfamoyl)-N-(5-methylthiazol-2-yl)-2-(pyrrolidin-1-yl)benzamide]
increase of Glc3Man9Glcnac2 LLO levels [1]: 31% | cyclin D1 reduced, protein level ([2]; PC9): 40% | cyclin D1 reduced, mRNA level ([2]; PC9, p<0.01): 40%±15% | cells in G1 [3]: 90%
